{"source": "paper PMC9025269", "about": "“Synthesis and Anti-Hepatitis B Activities of 3′-Fluoro-2′-Substituted Apionucleosides” (Molecules, 2022)", "key": {"[1]": {"test_system": "HBV", "conditions": "racemic compounds; read-out: EC50 HBV in vitro; cited from earlier work"}, "[2]": {"test_system": "HBV", "test": "HBV replication assay with HepG2.117 cells (qPCR of HBV DNA in supernatant)", "format": "cell-based, Hepatitis B virus", "conditions": "for EC50: Hepatitis B virus, HepG2.117 cells, 96 h, mean ± SD (n); for anti-HBV activity: cell-based assay"}, "[3]": {"test_system": "VSV-G pseudotyped HIV NL4-3", "test": "microbe, parasite or virus in culture", "format": "cell-based", "conditions": "for EC50: Human immunodeficiency virus 1, NL43, CCRF-CEM, 72 h, read-out: HIV EC50"}, "[4]": {"test": "Cell cytotoxicity against HepG2 cells (CellTiter-Glo, 96 h)", "format": "cell-based, human", "conditions": "human", "procedure": "(§1) In parallel, cell cytotoxicity (CC50) against HepG2 cells was measured using a luminescent cell viability assay to determine the number of viable cells in the culture based on quantitation of the adenosine triphosphate (ATP) present after a 4-day incubation period. On the first day, HepG2 cells were seeded at 15,000 cells per 100 µL per well with assay media containing DEME (Corning, cat#10-013-CV), 3% FBS (Coning, cat#35-011-CV), 1× penicillin/streptomycin and 1× Non-essential Amino Acid in Biocoat collagen-coated 96-well flat bottom plates. Cells were incubated in a 37 °C, 5% CO2 incubator for 4 h before compound dosing. The compound dilution and dosing procedure were identical to that for the determination of anti-HBV activity. After 96 h incubation, CellTiter-Glo® reagent (Promega, Madison, WI, USA) was added to each well and incubated for 10 min at RT. Luminescence was measured on a Victor X3 multi-label plate reader. Cell viability is normalized to the level observed in the absence of an inhibitor, which was defined as 100%."}, "[5]": {"test": "in vitro", "conditions": "human"}, "[6]": {"molecular_target": "T1, HIV-1 reverse transcriptase (HIV-1 RT) (Human immunodeficiency virus type 1 group M subtype B, UniProt P03366)", "T1 construct": "HIV-1 reverse transcriptase (HIV-1 RT) was purchased from Abcam (cat#ab63979); purchased Abcam ab63979", "test": "HIV-1 reverse transcriptase RdDp activity assay", "format": "biochemical", "description": "(§2) HIV-1 reverse transcriptase (HIV-1 RT) was purchased from Abcam (cat#ab63979). Recombinant HBV polymerase (Hepatitis B virus genotype D subtype ayw, full length) was cloned using the baculovirus system, expressed in sf9 cells, and purified with similar strategy and methods described by Lanford et al.. A DNA primer (5′-[…]-3′) was synthesized by IDTDNA and a 358-nt RNA template was synthesized in-house using Megascript T7 transcription kit (ThermoFisher, cat#AM1334). dNTPs were purchased from Thermo Fisher and ^3H-dTTP from Perkin Elmer. Filter plates were purchased from Millipore (cat#MABN0V050) and microscint-20 was purchased from Perkin Elmer (cat#6013621).\nThe RNA-dependent DNA polymerization (RdDp) activity of HIV-1 RT was measured by the incorporation of radioactively labeled nucleotides by HIV-1 RT into acid-insoluble DNA products from the DNA primer primed RNA template. To test compound inhibition, the reactions were performed at 30 °C for 40 min in a reaction mixture containing reaction buffer (50 mM Tris-Cl, pH 7.5, 100 mM KCl, 12.5 mM MgCl2, 4 mM DTT), 1 nM HIV-1 RT, 0.1 µM DNA primer, 0.02 µM RNA template, 10% DMSO, 0.1 µM dATP, 1 µM dGTP, 0.1 µM dCTP, 0.32 µM ^3H-dTTP, and compounds at various concentrations. The 50 µL reactions were performed in 96-well plates. The reactions were quenched with a 60 µL cold mixture of 20% (w/v) TCA and 0.5 mM ATP and incubated at 4 °C for 1 h. The reactions were loaded onto 96-well filter plates. The filters on plates were washed three times with 10% TCA and once with 70% ethanol on a Millipore plate wash station with vacuum applied. The filters on the plate were air-dried and 40 μL Microscint-20 was added to each well. The acid-precipitated tritiated DNA products retained on the filters were detected by a Trilux MicroBeta scintillation reader (Perkin Elmer).\nAll data were analyzed with GraphPad Prism. The compound concentration at which the enzyme-catalyzed rate was reduced by 50% (IC50) was calculated by fitting the data to the equation Y = % Min + (% Max − % Min) / (1 + 10^((logIC50-X)*h)), where Y corresponds to the percent inhibition to the enzyme activity, % Min is the residual inhibition activity without compound, % Max is the maximum inhibition of enzyme activity at saturating compound concentration, and X corresponds to the log of compound concentrations, and h is the hillslope."}, "[7]": {"molecular_target": "T2, HBV polymerase (Hepatitis B virus genotype D subtype ayw, UniProt P03156)", "T2 construct": "Recombinant HBV polymerase (Hepatitis B virus genotype D subtype ayw, full length); made in house; host or cells: Sf9 insect cells (baculovirus)", "T2 sequence (P03156 whole entry)": "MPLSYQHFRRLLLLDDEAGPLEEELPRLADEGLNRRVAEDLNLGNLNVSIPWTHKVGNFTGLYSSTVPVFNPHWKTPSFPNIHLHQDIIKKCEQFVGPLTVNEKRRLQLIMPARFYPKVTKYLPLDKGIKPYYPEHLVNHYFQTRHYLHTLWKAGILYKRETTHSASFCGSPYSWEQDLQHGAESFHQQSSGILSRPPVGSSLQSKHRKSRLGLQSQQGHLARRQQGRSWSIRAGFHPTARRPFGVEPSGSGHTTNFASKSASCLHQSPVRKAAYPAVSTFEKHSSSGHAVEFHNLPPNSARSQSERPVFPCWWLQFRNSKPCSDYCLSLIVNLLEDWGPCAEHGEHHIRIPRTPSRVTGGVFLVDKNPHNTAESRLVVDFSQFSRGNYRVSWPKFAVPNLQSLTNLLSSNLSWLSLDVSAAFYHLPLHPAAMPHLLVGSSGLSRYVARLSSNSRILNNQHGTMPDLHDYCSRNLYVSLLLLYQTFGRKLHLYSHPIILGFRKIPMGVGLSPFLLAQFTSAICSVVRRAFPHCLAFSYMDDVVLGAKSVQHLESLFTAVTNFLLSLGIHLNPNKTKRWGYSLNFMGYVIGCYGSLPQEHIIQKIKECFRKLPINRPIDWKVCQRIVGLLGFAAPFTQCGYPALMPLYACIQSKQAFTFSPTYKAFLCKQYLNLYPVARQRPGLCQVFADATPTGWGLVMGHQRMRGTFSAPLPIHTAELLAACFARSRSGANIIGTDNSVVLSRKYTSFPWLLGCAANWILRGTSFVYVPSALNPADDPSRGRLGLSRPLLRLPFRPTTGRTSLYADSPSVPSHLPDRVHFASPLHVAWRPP", "test": "HBV polymerase RdDp activity assay", "format": "biochemical", "conditions": "read-out: HBV pol IC50", "description": "as §2\nThe RdDp activity of HBV polymerase was measured similarly as described for the HIV-1 RT. To test compound inhibition effect, the reactions were performed at 30 °C for 120 min in a reaction mixture containing reaction buffer (50 mM Tris-Cl, pH 7.5, 100 mM KCl, 12.5 mM MgCl2, 4 mM DTT), 15 µg/mL polymerase, 0.5 µM DNA primer, 0.05 µM RNA template, 10% DMSO, 0.046 µM dATP, 0.057 µM dGTP, 0.017 µM dCTP, 0.32 µM ^3H-dTTP, and compounds at various concentrations.\nAll data were analyzed with GraphPad Prism. […]"}, "[8]": {"test_system": "HepG2 cells", "test": "Cell cytotoxicity against HepG2 cells (CellTiter-Glo, 96 h)", "format": "cell-based, human", "conditions": "at highest tested concentrations; HepG2 and CEM cells (Table 1)", "procedure": "as §1"}, "[9]": {"conditions": "HepG2 cells, 96 h, read-out: HBV CC50"}}, "note": "Read-outs that look alike come from different tables or passages of the source.", "data": [{"smiles": "Nc1ccn([C@H]2C[C@@](F)(CO)CO2)c(=O)n1", "note": "(relative stereo) [Compound 2c]", "values": [{"measurement": "EC50", "setting": "[1]", "result": 0.011, "unit": "µM"}]}, {"smiles": "Nc1nc(=O)n([C@H]2C[C@@](F)(CO)CO2)cc1F", "note": "(relative stereo) [Compound 2d]", "values": [{"measurement": "EC50", "setting": "[1]", "result": 0.8, "unit": "µM"}]}, {"smiles": "O=c1[nH]c(=O)n([C@H]2C[C@](F)(CO)CO2)cc1I", "note": "(relative stereo) [Compound 3b]", "values": [{"measurement": "EC50", "setting": "[1]", "result": 0.8, "unit": "µM"}]}, {"smiles": "C=C1[C@H](CO)[C@@H](O)C[C@@H]1n1cnc2c(=O)[nH]c(N)nc21", "note": "[Compound 1, entecavir, reference compound]", "values": [{"measurement": "EC50", "setting": "[2]", "result": "0.003 ± 0.0024", "unit": "µM"}, {"measurement": "EC50", "setting": "[3]", "result": 1.24, "unit": "µM"}, {"measurement": "CC50 at 96 h", "setting": "[4]", "result": "> 100", "unit": "µM"}]}, {"smiles": "C=C1[C@H](COP(=O)(N[C@@H](C)C(=O)OC(C)C)Oc2ccccc2)[C@@H](O)C[C@@H]1n1cnc2c(=O)[nH]c(N)nc21", "note": "(some centres unmarked) [Compound 1-PD, reference compound]", "values": [{"measurement": "CC50", "setting": "[5]", "result": "> 20", "unit": "µM"}, {"measurement": "EC50", "setting": "[2]", "result": "0.031 ± 0.02", "unit": "µM"}, {"measurement": "EC50", "setting": "[3]", "result": "> 20", "unit": "µM"}, {"measurement": "CC50 at 96 h", "setting": "[4]; [9]", "result": "> 10", "unit": "µM"}]}, {"smiles": "C=C1[C@H](COP(=O)(O)OP(=O)(O)OP(=O)(O)O)[C@@H](O)C[C@@H]1n1cnc2c(=O)[nH]c(N)nc21", "note": "[Compound 1-TP, reference compound]", "values": [{"measurement": "IC50", "setting": "[6]", "result": 0.32, "unit": "µM"}, {"measurement": "IC50", "setting": "[7]", "result": "0.014 ± 0.003", "unit": "µM"}]}, {"smiles": "Nc1ncnc2c1ncn2[C@@H]1OC[C@](F)(CO)[C@H]1O", "note": "[Compound 4, (2R,3S,4R)-2-(6-Amino-9H-purin-9-yl)-4-fluoro-4-(hydroxymethyl)tetrahydrofuran-3-ol]", "values": [{"measurement": "CC50", "setting": "[5]", "result": "> 33", "unit": "µM"}, {"measurement": "EC50", "setting": "[2]", "result": "> 100", "unit": "µM"}, {"measurement": "anti-HBV activity", "setting": "[2]", "result": "Neither 4 nor its prodrug 24 showed any anti-HBV activity"}, {"measurement": "EC50", "setting": "[3]", "result": "> 33", "unit": "µM"}, {"measurement": "cytotoxicity", "setting": "[8]", "result": "None of the tested apionucleosides 4 and 5 or apionucleoside prodrugs 24 and 39 showed any cytotoxicity"}, {"measurement": "CC50 at 96 h", "setting": "[4]", "result": "> 100", "unit": "µM"}]}, {"smiles": "Nc1ncnc2c1ncn2[C@@H]1OC[C@](F)(CO)[C@H]1CO", "note": "[Compound 5, ((2R,3S,4R)-2-(6-Amino-9H-purin-9-yl)-4-fluorotetrahydrofuran-3,4-diyl)dimethanol]", "values": [{"measurement": "CC50", "setting": "[5]", "result": "> 33", "unit": "µM"}, {"measurement": "EC50", "setting": "[2]", "result": "> 10", "unit": "µM"}, {"measurement": "anti-HBV activity", "setting": "[2]", "result": "did not show any anti-HBV activity"}, {"measurement": "EC50", "setting": "[3]", "result": "> 33", "unit": "µM"}, {"measurement": "cytotoxicity", "setting": "[8]", "result": "None of the tested apionucleosides 4 and 5 or apionucleoside prodrugs 24 and 39 showed any cytotoxicity"}, {"measurement": "CC50 at 96 h", "setting": "[4]", "result": "> 10", "unit": "µM"}]}, {"smiles": "Nc1ncnc2c1ncn2[C@@H]1OC[C@](F)(COP(=O)(O)OP(=O)(O)OP(=O)(O)O)[C@H]1O", "note": "[Compound 23, ((3S,4S,5R)-5-(6-Amino-9H-purin-9-yl)-3-fluoro-4-hydroxytetrahydrofuran-3-yl)methyl triphosphate]", "values": [{"measurement": "IC50", "setting": "[6]", "result": 4.2, "unit": "µM"}]}, {"smiles": "CC(C)OC(=O)[C@H](C)NP(=O)(OC[C@@]1(F)CO[C@@H](n2cnc3c(N)ncnc32)[C@@H]1O)Oc1ccccc1", "note": "(stereo partly drawn) [Compound 24, Isopropyl ((((3S,4S,5R)-5-(6-amino-9H-purin-9-yl)-3-fluoro-4-hydroxytetrahydrofuran-3-yl)methoxy)(phenoxy)phosphoryl)-L-alaninate]", "values": [{"measurement": "CC50", "setting": "[5]", "result": "> 33", "unit": "µM"}, {"measurement": "EC50", "setting": "[2]", "result": "> 10", "unit": "µM"}, {"measurement": "anti-HBV activity", "setting": "[2]", "result": "Neither 4 nor its prodrug 24 showed any anti-HBV activity"}, {"measurement": "EC50", "setting": "[3]", "result": "> 33", "unit": "µM"}, {"measurement": "cytotoxicity", "setting": "[8]", "result": "None of the tested apionucleosides 4 and 5 or apionucleoside prodrugs 24 and 39 showed any cytotoxicity"}, {"measurement": "CC50 at 96 h", "setting": "[4]; [9]", "result": "> 10", "unit": "µM"}]}, {"smiles": "CC(C)OC(=O)[C@H](C)NP(=O)(OC[C@@]1(F)CO[C@@H](n2cnc3c(N)ncnc32)[C@@H]1CO)Oc1ccccc1", "note": "(stereo partly drawn) [Compound 39, Isopropyl ((((3S,4S,5R)-5-(6-amino-9H-purin-9-yl)-3-fluoro-4-(hydroxymethyl)tetrahydro-furan-3-yl)methoxy)(phenoxy)phosphoryl)-L-alaninate]", "values": [{"measurement": "CC50", "setting": "[5]", "result": "> 33", "unit": "µM"}, {"measurement": "EC50", "setting": "[2]", "result": "0.0078 ± 0.0035", "unit": "µM"}, {"measurement": "anti-HBV activity", "setting": "[2]", "result": "strong inhibition of HBV"}, {"measurement": "anti-HIV activity", "setting": "[3]", "result": "showed anti-HIV activity"}, {"measurement": "EC50", "setting": "[3]", "result": 0.3, "unit": "µM"}, {"measurement": "cytotoxicity", "setting": "[8]", "result": "None of the tested apionucleosides 4 and 5 or apionucleoside prodrugs 24 and 39 showed any cytotoxicity"}, {"measurement": "CC50 at 96 h", "setting": "[4]; [9]", "result": "> 10", "unit": "µM"}]}]}
